# What was measured:
# porcine morulae = assay: In vitro development of porcine morulae following NZ treatment; type: cell-based; conditions: 15 h
# Method: In vitro culture of oocytes, embryos and nuclear transfer embryos was conducted in 25 μl droplets of Whitten's medium (Whitten W K, 1971, in G Raspe, ed Advances in the Biosciences, Pergamon Press: Oxford, pp 129-141) supplemented with 15 mg/ml bovine serum albumin (BSA) under paraffin oil in a plastic petrie dish under an atmosphere of 5% CO2, 5% O2 and 90% N2 in humidified air at […].
# [1] = test system: porcine blastomere nuclei; assay: Metaphase arrest induced in porcine blastomere nuclei following treatment with nocodazole; type: cell-based
# Source text: Preferably, karyoplasts may be synchronized at the G1 state using a DNA synthesis inhibitor and/or use of a microtubule inhibitor which, on following removal of the inhibitor(s), results in synchronization of the karyoplast at the G1 state, or by means other than DNA inhibition, excluding serum starvation, for example cdk kinase inhibitors such as Butyrolactone I (Motlik et al (1998) Theriogeneology 49: 461-469). Examples of DNA synthesis inhibitors include: aphidicolin, hydroxyurea, cytosine arabinoside, 5-fluorouracil, n-ethylmalemide and etoposide. Any microtubule inhibitor may be used in this invention including nocodazole, colchecine or colcemid. Alternatively, a microtubule stabilizer such as, for example, taxol may be used. Karyoplasts may, for example, be synchronized at G1 by the use of a microtubule inhibitor such as nocodazole (to give a population of nuclei at the metaphase) followed by treatment with a DNA synthesis inhibitor such as aphidicolin in which the nuclei progress to an arrest at the G1 state. […] Karyoplasts may be synchronized in the Go state by nutrient deprivation, such as incubation in a low serum containing medium, as is known in the art, or by chemical treatment. Donor karyoplasts (such as cells) may be incubated in a standard culture medium with a DNA synthesis inhibitor and/or microtubule inhibitor for a time sufficient to synchronize the cells at the G1 state. This can be readily observed by microscopic observations. DNA synthesis inhibitors and/or microtubule inhibitors may be used, for example, in an amount of from about 0.01 μg/ml to about 50 μg/ml, such as about 1-5 μg/ml culture medium. Microtubule inhibitors fix the cells at the M phase. After removal of microtubule inhibitor from the cell media, which can conveniently be done by washing the cells, cells pass to the G1 phase after about 30 minutes to 6 hours in a uniform manner such that a plurality of cells in the G1 phase can be conveniently prepared. A DNA synthesis inhibitor synchronises cells at the G1 phase. Removal of a DNA synthesis inhibitor from cell media allows the cell cycle to proceed. Similarly donor karyoplasts may be synchronized in the G0 state as described above.
structure (smiles),measurement,setting,value
"COC(=O)Nc1nc2ccc(C(=O)c3cccs3)cc2[nH]1 [NZ, nocodazole]",Development to blastocyst,"porcine morulae; NZ 0.5 μg/ml, 3 repeats",70%
same,Development to blastocyst,"porcine morulae; NZ 0.5 μg/ml, 3 repeats, number of blastocysts/total",14/20
same,Development to blastocyst,"porcine morulae; NZ 1 μg/ml, 4 repeats",57%
same,Development to blastocyst,"porcine morulae; NZ 1 μg/ml, 4 repeats, number of blastocysts/total",17/30
same,Blastomeres at M,"[1]; 4 h exposure, NZ 1 μg/ml",(24%)
same,Blastomeres at M,"[1]; 4 h exposure, NZ 1 μg/ml, number at M/total",14/58
same,Blastomeres at M,"[1]; 7 h exposure, NZ 1 μg/ml",(41%)
same,Blastomeres at M,"[1]; 7 h exposure, NZ 1 μg/ml, number at M/total",54/133
same,Blastomeres at M,"[1]; 15 h exposure, NZ 0.5 μg/ml",(76%)
same,Blastomeres at M,"[1]; 15 h exposure, NZ 0.5 μg/ml, number at M/total",101/133
same,Blastomeres at M,"[1]; 15 h exposure, NZ 1 μg/ml",(96%)
same,Blastomeres at M,"[1]; 15 h exposure, NZ 1 μg/ml, number at M/total",257/267
